“And” between values parts separate entries of the source, which are not always exact repeats. Identical values can stand only once. Like-named read-outs stand apart in the source and are kept apart here.

Holding throughout (format): cell-based
In experiment [1] the test system is KNRK cells. Description: ATP-stimulated IP1 accumulation in KNRK cells. Particulars: ATP (10 μM). How it is done: KNRK-hPAR2, KNRK or HT-29 cells were seeded at a density of 50×10^3 cells/well in a clear poly-d-lysine coated 96 well tissue culture plate. Following 24 h incubation at 37° C. and 5% CO2, media was removed and replaced with 80 μl IP1 stimulation buffer (10 mM HEPES, 1 mM CaCl2, 0.5 mM MgCl2, 4.2 mM KCl, 146 mM NaCl, 5.5 mM glucose, 50 mM LiCl). Following stimulation buffer addition, the wells received 10 μl of 10× antagonists or DMSO vehicle. All plates were further incubated at 37° C., 5% CO2 for 30 min. 10 μl of 2F or ATP was added to the plates and further incubated for 40 min. Following incubation, stimulation buffer was quickly removed by aspiration and replaced with 25 μl lysis buffer (IP-One HTRF® assay kit, Cisbio). Following incubation of the lysates at 37° C., 5% CO2 for 10′, 10 μl lysate was transferred to a 384-well OptiPlate (PerkinElmer) and detected using the IP-One HTRF® assay kit (Cisbio).
Compounds of the invention (added at 10×concentrations in a 10 μL volume) were incubated for 30 min prior to the addition of 10 μM ATP or 100 nM or 300 nM PAR2 agonist (2F; EC80, added at 10×concentrations in a 10 μL volume) and then further incubated for 40 min. After lysis, the inositol phosphate 1 was quantified with IP-One HTRF® assay kit, Cisbio. The data was analysed with Prism, GraphPad to calculate the IC50 values, shown below in Table 1. […]

The target in experiment [2] is T1, PAR2 (Homo sapiens, UniProt P55085).
T1 construct: HT-29 cells and HEK293 cells, which express endogenous PAR2; endogenous in cells; host or cells: HT-29
T1 sequence (P55085 26-397): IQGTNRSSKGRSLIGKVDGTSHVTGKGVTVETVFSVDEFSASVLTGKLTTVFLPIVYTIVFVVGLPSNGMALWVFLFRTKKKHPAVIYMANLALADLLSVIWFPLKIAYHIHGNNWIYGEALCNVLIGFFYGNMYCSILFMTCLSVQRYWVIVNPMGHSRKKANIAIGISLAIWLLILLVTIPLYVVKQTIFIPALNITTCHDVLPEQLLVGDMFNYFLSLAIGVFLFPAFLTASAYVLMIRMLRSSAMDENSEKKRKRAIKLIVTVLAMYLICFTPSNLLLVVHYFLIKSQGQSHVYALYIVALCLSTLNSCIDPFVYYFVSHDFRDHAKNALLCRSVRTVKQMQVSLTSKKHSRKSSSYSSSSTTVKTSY
In words: IP1 accumulation assay in HEK293 cells (endogenous PAR2). To be noted: trypsin (30 nM). On the procedure:
Inhibition of PAR2 signaling with known PAR2 inhibitor I-343 (FIG. 14A) was investigated in HT-29 cells and HEK293 cells, which express endogenous PAR2, and in KNRK cells expressing human (h) PAR2. Accumulation of inositol phosphate-1 (IP1) was measured in response to the PAR2-selective agonist 2-Furoyl-LIGRLO-NH2 (2F), an analogue of the trypsin-exposed tethered ligand, or trypsin.
KNRK-hPAR2, KNRK, HEK293, or HT-29 cells were seeded at a density of 50×10^3 cells/well onto clear 96-well plates (PerkinElmer). After 24 h of culture, medium was replaced with IP1 stimulation buffer (10 mM HEPES, 1 mM CaCl2, 0.5 mM MgCl2, 4.2 mM KCl, 146 mM NaCl, 5.5 mM glucose, 50 mM LiCl; 37° C., 5% CO2.). Cells were pre-incubated with the antagonist or vehicle for 30 min prior to the addition of agonist. Cells were then further incubated for 40 min. Stimulation buffer was […]

Experiment [3] has as its target T2, human (h) PAR2 (Homo sapiens, UniProt P55085).
T2 construct: expressed in transfected cells; host or cells: KNRK cells (KNRK-hPAR2)
T2 sequence (P55085 26-397): T1 sequence (P55085 26-397)
In words: IP1 accumulation assay in KNRK-hPAR2 cells.

For experiment [4], the target named is T1, PAR2. Description: IP1 accumulation assay in HT-29 cells (endogenous PAR2). Particulars: 2F (300 nM)-induced IP1, HT-29 cells; read-out: HT-29 300 nM 2F pIC50 ± SEM (converted). Put shortly: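 KNRK-hPAR2 or HT-29 cells (50×10³/well, 24 h) in LiCl-containing stimulation buffer, pre-incubated with antagonist 30 min at 37 °C, then stimulated 40 min with 2F at 100 or 300 nM (EC80) or 10 μM ATP. IP1 in lysate quantified by HTRF; IC50 from concentration-response.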

For experiment [5], the system named is βARR1-RLuc8 or Gαq-RLuc8 and Rab5a-Venus. Description: BRET of βARR1 and Gαq translocation to early endosomes in HEK293 cells. To be noted: trypsin 100 nM. On the procedure:
To determine whether trypsin induces translocation of βARR and Gαq to endosomes, we measured BRET between βARR1-RLuc8 or Gαq—RLuc8 and Rab5a-Venus in HEK293 cells. […] Immunofluorescence and structured illumination microscopy were used to localize PAR2-HA, Gαq and early endosomal antigen-1 (EEA1) in HEK-293 cells. In unstimulated cells, PAR2 was confined to the plasma membrane, although Gαq was detected in early endosomes (FIG. 18C). Trypsin (10 nM, 30 min) induced translocation of PAR2 to early endosomes containing Gαq. The results support the hypothesis that trypsin causes assembly of a PAR2/βARR/Gαq signalosome in early endosomes.
HEK293 cells were transiently transfected in 10 cm dishes (˜50% confluency) with: PAR2-RLuc8 (1 μg) and either RIT-Venus or Rab5a-Venus (both 4 μg); Flag-PAR2-HA (1 μg) and βARR1-RLuc8 (1 μg) plus Rab5a-Venus (4 μg); or Flag-PAR2-HA (1 μg) and Gαq-RLuc8 (0.5 μg), Gb (1 μg), Gg (1 μg) and Rab5a-Venus (4 μg). […] RLuc8 and YFP intensities were measured at 475±30 nm and 535±30 nm, respectively, using a LUMIstar Omega Microplate Reader (BMG LabTech) before and after challenge with proteases, biopsy supernatants or vehicle. Data are presented as a BRET ratio, calculated as the ratio of YFP to RLuc8 signals, and normalized to the baseline average, followed by vehicle subtraction. Treatment effects were determined by comparison of area under the curve values.
Background: In BRET a luciferase serves as donor, and the signal depends on an acceptor being close.

With `Cc1nc(C(=O)N2CCN(C(=O)c3cn4nc(-c5ccc(F)cc5)cc(C(C)(C)C)c4n3)C(C)(C)C2)n[nH]1` [Compound I-343, (8-(tert-butyl)-6-(4-fluorophenyl)imidazo[1,2-b]pyridazin-2-yl)(2,2-dimethyl-4-(5-methyl-1H-1,2,4-triazole-3-carbonyl)piperazin-1-yl)methanone], the “ATP-stimulated IP1” value in experiment [1] was “did not affect”. The IC50 in experiment [2] (read-out: IC50, trypsin-induced IP1 in HEK293 cells) was 0.4 nM; in experiment [2] (read-out: pIC50, trypsin-induced IP1 in HEK293 cells (converted)), 0.437 nM; in experiment [3] (2F (100 nM)-induced IP1, KNRK-hPAR2 cells, read-out: KNRK-PAR2 100 nM 2F (IC50)) it was 666 nM; in experiment [3] (trypsin (30 nM), read-out: IC50, trypsin-induced IP1 in KNRK-hPAR2 cells), 7510 nM; in experiment [3] (trypsin (30 nM), read-out: pIC50, trypsin-induced IP1 in KNRK-hPAR2 cells (converted)), 7410 nM; in experiment [4], 1.17 nM and 1.1 nM.
Take trypsin: in experiment [5], the “βARR1-RLuc8/Rab5a-Venus BRET and Gαq-RLuc8/Rab5a-Venus BRET” value is “stimulated an increase”.

(Values after patent US20200383985A1, “Inhibitors of Protease Activated Receptor-2” (Endosome Therapeutics, Inc., priority 2017, published 2020).)
